Legend:
Assay type in all cases: in vivo
[1] = system: Brassica napus expressing BnaA01g04600D (SEQ ID 21) variant G1012R; assay: Greenhouse herbicide tolerance, post emergent; conditions: 7 days after treatment
Protocol: (§1) T1/T2 transgenic plants of Brassica napus containing cellulose synthase sequences or mutated gene variants thereof are tested for improved tolerance to herbicides in greenhouse studies with azine herbicides. For the pre-emergence treatment, the herbicides are applied directly after sowing by means of finely distributing nozzles. The containers are irrigated gently to promote germination and growth and subsequently covered with transparent plastic hoods until the plants have rooted. This cover causes uniform germination of the test plants, unless this has been impaired by the herbicides. For post emergence treatment, the test plants are first grown to a height of 3 to 15 cm, depending on the plant habit, and only then treated with the herbicides. For this purpose, the test plants are either sown directly, and grown in the same containers or they are first grown separately and transplanted into the test containers a few days prior to treatment.
(§2) Herbicide injury evaluations are taken at 1, 2 and 3 weeks after treatment. Plant biomass reduction is rated on a scale of 0% to 100%, 0% being no reduction of biomass compared to untreated control, and 100% being complete absence of biomass.

[2] = system: Brassica napus expressing BnaA03g52020D (SEQ ID 15) variant G1015R; assay: Greenhouse herbicide tolerance, post emergent; conditions: 7 days after treatment
Protocol: as §1, §2

[3] = system: Brassica napus expressing BnaA03g55200D (SEQ ID 12) variant S1038F; assay: Greenhouse herbicide tolerance, post emergent; conditions: 7 days after treatment
Protocol: as §1, §2

[4] = system: Brassica napus expressing BnaA03g55200D (SEQ ID 12) variant S1041L; assay: Greenhouse herbicide tolerance, post emergent; conditions: 7 days after treatment
Protocol: as §1, §2

[5] = system: Brassica napus expressing BnaAnng01240D (SEQ ID 20) variant S1038F; assay: Greenhouse herbicide tolerance, post emergent; conditions: 7 days after treatment
Protocol: as §1, §2

[6] = system: Brassica napus wildtype; assay: Greenhouse herbicide tolerance, post emergent; conditions: 7 days after treatment
Protocol: as §1, §2

[7] = system: Brassica napus expressing BnaAnng01240D (SEQ ID 20) variant S1041L; assay: 6-well plate injury test, T1 seeds on vermiculite; conditions: 7 days after treatment
Protocol: (§3) Transgenic Brassica napus plants are assayed for improved tolerance to azine herbicides like e. g. 6-cyclopentyl-N4-(2,3,4,5,6-pentafluorophenyl)-1,3,5-triazine-2,4-diamine in 6-well plates. Therefore, 5-6 T1 seeds are sown on vermiculite and watered with half-strength murashige skoog nutrient solution, pH 5.8 (Murashige and Skoog (1962) Physiologia Plantarum 15: 473-497). Compounds are dissolved in dimethylsulfoxid (DMSO) and added to the medium (final DMSO concentration 0.1%). Multi well plates are incubated in a growth chamber at 22° C., 75% relative humidity and 110 μmol Phot*m^−2*s^−1 with 14: 10 h light: dark photoperiod. Growth inhibition is evaluated seven to ten days after seeding in comparison to wild type plants. Plant injury is rated on a scale of 0% to 100%, 0% being no injury and 100% being complete death.

[8] = system: Brassica napus expressing BnaAnng01240D (SEQ ID 20) variant S1038F; assay: 6-well plate injury test, T1 seeds on vermiculite; conditions: 7 days after treatment
Protocol: as §3

[9] = system: Arabidopsis thaliana expressing AtCesA1_G1009D_G1013R (SEQ ID 1); assay: 48-well plate growth inhibition, T2 seeds, tolerance factor; conditions: based on IC50 values of growth inhibition, seven to ten days after seeding
Protocol: (§4) Transgenic Arabidopsis thaliana plants (T2) are assayed for improved tolerance to azine herbicides like e. g. 6-cyclopentyl-N4-(2,3,4,5,6-pentafluorophenyl)-1,3,5-triazine-2,4-diamine in 48-well plates. Therefore, T2 seeds are surface sterilized by stirring for 5 min in ethanol+water (70+30 by volume), rinsing one time with ethanol+water (70+30 by volume) and two times with sterile, deionized water. The seeds are resuspended in 0.1% agar dissolved in water (w/v) Four to five seeds per well are plated on solid nutrient medium consisting of half-strength murashige skoog nutrient solution, pH 5.8 (Murashige and Skoog (1962) Physiologia Plantarum 15: 473-497). Compounds are dissolved in dimethylsulfoxid (DMSO) and added to the medium prior solidification (final DMSO concentration 0.1%). Multi well plates are incubated in a growth chamber at 22° C., 75% relative humidity and 110 μmol Phot*m^−2*s^−1 with 14:10 h light:dark photoperiod. Growth inhibition is evaluated seven to ten days after seeding in comparison to wild type plants. Tolerance factors are calculated based on IC50 values of growth inhibition of transformed versus non-transformed Arabidopsis plants.

[10] = system: Arabidopsis thaliana expressing AtCesA1_P1010L_G1013R (SEQ ID 1); assay: as above; conditions: based on IC50 values of growth inhibition, seven to ten days after seeding
Protocol: as §4

[11] = system: Arabidopsis thaliana expressing AtCesA3_S983F_S1037F (SEQ ID 3); assay: as above; conditions: based on IC50 values of growth inhibition, seven to ten days after seeding
Protocol: as §4

[12] = system: Arabidopsis thaliana expressing AtCesA1_wt (SEQ ID 1); assay: as above; conditions: based on IC50 values of growth inhibition, seven to ten days after seeding
Protocol: as §4

[13] = system: Arabidopsis thaliana expressing AtCesA3_wt (SEQ ID 3); assay: as above; conditions: based on IC50 values of growth inhibition, seven to ten days after seeding
Protocol: as §4

How did the average phytotox value ([1]; 3.9 g/ha) turn out when `Nc1nc(Nc2c(F)c(F)c(F)c(F)c2F)nc(C2CCCC2)n1` [6-cyclopentyl-N4-(2,3,4,5,6-pentafluorophenyl)-1,3,5-triazine-2,4-diamine] was run?
The average phytotox value was 17%.

And the average phytotox value ([1]; 7.8 g/ha)?
Its average phytotox value is 35%.

What about the average phytotox value ([1]; 15.6 g/ha) of the same compound?
Its average phytotox value is 35%.

And the average phytotox value ([1]; 31.25 g/ha)?
The average phytotox value was 60%.

What about the average phytotox value ([2]; 1st listed line, 3.9 g/ha) of the same compound?
The average phytotox value was 18%.

And the average phytotox value ([2]; 1st listed line, 7.8 g/ha)?
The average phytotox value was 43%.

What about the average phytotox value ([2]; 1st listed line, 15.6 g/ha) of the same compound?
Its average phytotox value is 41%.

And the average phytotox value ([2]; 1st listed line, 31.25 g/ha)?
Its average phytotox value is 53%.

And the average phytotox value ([2]; 2nd listed line, 3.9 g/ha)?
The average phytotox value was 37%.

And the average phytotox value ([2]; 2nd listed line, 7.8 g/ha)?
The average phytotox value was 61%.

What about the average phytotox value ([2]; 2nd listed line, 15.6 g/ha) of the same compound?
The average phytotox value was 45%.

And the average phytotox value ([2]; 2nd listed line, 31.25 g/ha)?
Its average phytotox value is 67%.

And the average phytotox value ([3]; 1st listed line, 3.9 g/ha)?
The average phytotox value was 23%.

What about the average phytotox value ([3]; 1st listed line, 7.8 g/ha) of the same compound?
The average phytotox value was 25%.

What about the average phytotox value ([3]; 1st listed line, 15.6 g/ha) of the same compound?
Its average phytotox value is 29%.

And the average phytotox value ([3]; 1st listed line, 31.25 g/ha)?
Its average phytotox value is 34%.

What about the average phytotox value ([3]; 2nd listed line, 3.9 g/ha) of the same compound?
Its average phytotox value is 7%.

What about the average phytotox value ([3]; 2nd listed line, 7.8 g/ha) of the same compound?
Its average phytotox value is 19%.

And the average phytotox value ([3]; 2nd listed line, 15.6 g/ha)?
The average phytotox value was 20%.

And the average phytotox value ([3]; 2nd listed line, 31.25 g/ha)?
The average phytotox value was 44%.

And the average phytotox value ([4]; 3.9 g/ha)?
Its average phytotox value is 15%.

What about the average phytotox value ([4]; 7.8 g/ha) of the same compound?
Its average phytotox value is 27%.

And the average phytotox value ([4]; 15.6 g/ha)?
The average phytotox value was 42%.

And the average phytotox value ([4]; 31.25 g/ha)?
Its average phytotox value is 51%.

And the average phytotox value ([5]; 1st listed line, 3.9 g/ha)?
Its average phytotox value is 1%.

And the average phytotox value ([5]; 1st listed line, 7.8 g/ha)?
Its average phytotox value is 5%.

And the average phytotox value ([5]; 1st listed line, 15.6 g/ha)?
Its average phytotox value is 8%.

And the average phytotox value ([5]; 1st listed line, 31.25 g/ha)?
The average phytotox value was 27%.

What about the average phytotox value ([5]; 2nd listed line, 3.9 g/ha) of the same compound?
Its average phytotox value is 1%.

What about the average phytotox value ([5]; 2nd listed line, 7.8 g/ha) of the same compound?
The average phytotox value was 10%.

What about the average phytotox value ([5]; 2nd listed line, 15.6 g/ha) of the same compound?
Its average phytotox value is 41%.

What about the average phytotox value ([5]; 2nd listed line, 31.25 g/ha) of the same compound?
Its average phytotox value is 50%.

What about the average phytotox value ([6]; 3.9 g/ha) of the same compound?
The average phytotox value was 23%.

What about the average phytotox value ([6]; 7.8 g/ha) of the same compound?
Its average phytotox value is 34%.

What about the average phytotox value ([6]; 15.6 g/ha) of the same compound?
The average phytotox value was 59%.

What about the average phytotox value ([6]; 31.25 g/ha) of the same compound?
Its average phytotox value is 73%.

And the average phytotox value ([7]; BnaAnng01240D S1041L event 1, 5*10^-8M)?
Its average phytotox value is 55%.

And the average phytotox value ([7]; BnaAnng01240D S1041L event 1, 10^-6M)?
Its average phytotox value is 80%.

What about the average phytotox value ([7]; BnaAnng01240D S1041L event 1, 10^-7M) of the same compound?
The average phytotox value was 70%.

What about the average phytotox value ([7]; BnaAnng01240D S1041L event 1, 10^-8M) of the same compound?
The average phytotox value was 0%.

What about the average phytotox value ([7]; BnaAnng01240D S1041L event 1, 10^-9M) of the same compound?
The average phytotox value was 0%.

What about the average phytotox value ([7]; BnaAnng01240D S1041L event 2, 5*10^-8M) of the same compound?
Its average phytotox value is 65%.

What about the average phytotox value ([7]; BnaAnng01240D S1041L event 2, 10^-6M) of the same compound?
Its average phytotox value is 80%.

What about the average phytotox value ([7]; BnaAnng01240D S1041L event 2, 10^-7M) of the same compound?
Its average phytotox value is 80%.

And the average phytotox value ([7]; BnaAnng01240D S1041L event 2, 10^-8M)?
Its average phytotox value is 0%.

And the average phytotox value ([7]; BnaAnng01240D S1041L event 2, 10^-9M)?
The average phytotox value was 0%.

What about the average phytotox value ([8]; BnaAnng01240D S1038F event 1, 5*10^-8M) of the same compound?
The average phytotox value was 50%.

And the average phytotox value ([8]; BnaAnng01240D S1038F event 1, 10^-6M)?
Its average phytotox value is 80%.

What about the average phytotox value ([8]; BnaAnng01240D S1038F event 1, 10^-7M) of the same compound?
The average phytotox value was 60%.

What about the average phytotox value ([8]; BnaAnng01240D S1038F event 1, 10^-8M) of the same compound?
The average phytotox value was 0%.

What about the average phytotox value ([8]; BnaAnng01240D S1038F event 1, 10^-9M) of the same compound?
The average phytotox value was 0%.

What about the average phytotox value ([8]; BnaAnng01240D S1038F event 2, 5*10^-8M) of the same compound?
The average phytotox value was 65%.

What about the average phytotox value ([8]; BnaAnng01240D S1038F event 2, 10^-6M) of the same compound?
The average phytotox value was 80%.

What about the average phytotox value ([8]; BnaAnng01240D S1038F event 2, 10^-7M) of the same compound?
The average phytotox value was 65%.

What about the average phytotox value ([8]; BnaAnng01240D S1038F event 2, 10^-8M) of the same compound?
Its average phytotox value is 0%.

And the average phytotox value ([8]; BnaAnng01240D S1038F event 2, 10^-9M)?
Its average phytotox value is 0%.

And the “Relative tolerance rate as compared to non-transgenic Arabidopsis plants (non-transgenic = 1.0)” value (“Relative tolerance rate … (non-transgenic = 1.0)” below) [9]?
Its value is 1.

What about the “Relative tolerance rate … (non-transgenic = 1.0)” value [10] of the same compound?
The value was 30.

And the “Relative tolerance rate … (non-transgenic = 1.0)” value [11]?
The value was 10.

What about the “Relative tolerance rate … (non-transgenic = 1.0)” value [12] of the same compound?
The value was 1.

And the “Relative tolerance rate … (non-transgenic = 1.0)” value [13]?
Its value is 1.

— US12203089B2, “Plants having increased tolerance to herbicides” (BASF SE, priority 2015, dated 2025)
